The text below walks through data of patent US20190076452A1, “THERAPEUTIC COMBINATIONS FOR TREATING NEOPLASIA” (MEDIMMUNE LIMITED, priority 2014, published 2019).

The subject of experiment [1] is CT26 tumors. The experiment can be described thus: Established CT26 tumors in immunocompetent Balb/C mice. Type of experiment: in vivo. As to conditions: maximally tolerated doses, tumors approximately 200 mm^3, immunocompetent mice. How it is done: (§1) FIG. 4A is a graph showing tumor volume in CT26 tumor-bearing athymic nude mice dosed with Doxil (5 mg/kg) or Doxorubicin (5 mg/kg) as indicated. FIG. 4B is a graph showing tumor volume in CT26 tumor-bearing Balb/C mice dosed with Doxil (5 mg/kg) or Doxorubicin (5 mg/kg) as indicated. FIG. 4C is a graph showing tumor volume in CT26 tumor-bearing athymic nude mice dosed with gemcitabine (75 mg/kg) as indicated. FIG. 4D is a graph showing tumor volume in CT26 tumor-bearing Balb/C mice dosed with gemcitabine (75 mg/kg) as indicated. FIG. 4E is a graph showing tumor volume in CT26 tumor-bearing athymic nude mice dosed with oxiplatin (8 mg/kg) as indicated. FIG. 4F is a graph showing tumor volume in CT26 tumor-bearing Balb/C mice dosed with oxiplatin (8 mg/kg) as indicated. Arrows indicate dose administration.
A CT26 model was used in several studies. CT26 cells are murine colon cancer cells. CT26 cells were obtained from the ATCC (Manassas, Va.), and were grown with RPMI supplemented with 10% fetal bovine serum. Following receipt, cell lines were re-authenticated using STR-based DNA profiling and multiplex PCR (IDEXX Bioresearch, Columbia, Mo.). Cells were grown in monolayer culture, harvested by trypsinizatin, and implanted subcutaneously into the right flank of 6-8 week old female Balb/C (CT26), C57/Bl6 (MCA205), or 4-6 week athymic female nude mice (Harlan, Indianapolis, Ind.). For the CT26 tumor model, 5×10^5 cells were implanted in the right flank using a 26-gauge needle. […] The number of animals per group ranged from between 10-12 animals per group as determined based on sample size calculations using nQuery software. Both tumor and body weight measurements were collected twice weekly and tumor volume calculated using the equation (L×W^2)/2, where L and W refers to the length and width dimensions, respectively. Error bars were calculated as standard error of the mean. The general health of mice was monitored daily and all experiments were conducted in accordance to AAALAC and MedImmune IACUC guidelines for humane treatment and care of laboratory animals.

Another experiment concerns CT26 cells. The experiment can be described thus: CT26 tumor model, preventative treatment before measurable tumor. Type of experiment: in vivo, Balb/C mice. As to the method:
A CT26 model was used in several studies. CT26 cells are murine colon cancer cells. CT26 cells were obtained from the ATCC (Manassas, Va.), and were grown with RPMI supplemented with 10% fetal bovine serum. Following receipt, cell lines were re-authenticated using STR-based DNA profiling and multiplex PCR (IDEXX Bioresearch, Columbia, Mo.). Cells were grown in monolayer culture, harvested by trypsinizatin, and implanted subcutaneously into the right flank of 6-8 week old female Balb/C (CT26), C57/Bl6 (MCA205), or 4-6 week athymic female nude mice (Harlan, Indianapolis, Ind.). For the CT26 tumor model, 5×10^5 cells were implanted in the right flank using a 26-gauge needle. Antibodies were obtained from Anti-PD-1 (RMP1-14), anti-PD-L1 (10F.9G2), anti-CTLA-4 (9D9), and mouse IgG2b control (MPC-11). Mouse OX40 fusion protein (OX40 FP) and Rat IgG2a isotype control antibodies were produced by MedImmune (Gaithersburg, Md.). All antibodies and OX40 FP were dosed via intraperitoneal injection. Doxil (Bluedoor Pharma, Rockville, Md.) and doxorubicin (Henry Schein, Melville, N.Y.) were dosed via intravenous administration. In some studies, isotype controls were administered to mice as a cocktail of rat IgG2a and mouse IgG2b. At the beginning of treatment, mice were either randomized by tumor volume (established-tumor studies) or by body weight (preventative studies). The number of animals per group ranged from between 10-12 animals per group as determined based on sample size calculations using nQuery software. Both tumor and body weight measurements were collected twice weekly and tumor volume calculated using the equation (L×W^2)/2, where L and W refers to the length and width dimensions, respectively. Error bars were calculated as standard error of the mean. The general health of mice was monitored daily and all experiments were conducted in accordance to AAALAC and MedImmune IACUC guidelines for humane treatment and care of laboratory animals.

Experiment [2] relates to CT26 tumors. The experiment can be described thus: Established CT26 tumors in T cell-deficient athymic nude mice. Type of experiment: in vivo. As to conditions: maximally tolerated doses, tumors approximately 200 mm^3, immunodeficient mice. As to the method: as §1, with “FIG. 4F is a graph showing tumor volume in CT26 tumor-bearing Balb/C mice dosed with oxiplatin (8 mg/kg) as indicated. Arrows indicate dose administration.” left out
(§2) A CT26 model was used in several studies. […] The number of animals per group ranged from between 10-12 animals per group as determined based on sample size calculations using nQuery software. Both tumor and body weight measurements were collected twice weekly and tumor volume calculated using the equation (L×W^2)/2, where L and W refers to the length and width dimensions, respectively. Error bars were calculated as standard error of the mean. The general health of mice was monitored daily and all experiments were conducted in accordance to AAALAC and MedImmune IACUC guidelines for humane treatment and care of laboratory animals.

Another experiment deals with xenograft model. The following applies: T-cell dependent mechanism; cited from earlier work.
Experiment [3] has as its system CT26 tumors. The experiment can be described thus: Established CT26 tumor model, Doxil combined with immunotherapies. Type of experiment: in vivo, Balb/C mice. As to conditions: maximally efficacious doses.
Excerpt: FIGS. 5A-5L show synergistic anti-tumor responses of Doxil in combination with multiple immunotherapies in an established CT26 tumor model. FIG. 5A is a graph depicting tumor volume in untreated mice. FIG. 5B is a graph depicting tumor volume in mice administered Doxil. FIG. 5C is a graph depicting tumor volume in mice administered OX40L fusion protein (FP). FIG. 5D is a graph depicting tumor volume in mice administered α-PD-1. FIG. 5E is a graph depicting tumor volume in mice administered α-PD-L1. FIG. 5F is a graph depicting tumor volume in mice administered α-CTLA-4. FIG. 5G is a graph depicting tumor volume in mice administered GITR ligand fusion protein (GITRL FP). FIG. 5H is a graph depicting tumor volume in mice administered Doxil+OX40L FP. […]
as §2, with “animals. […]” for “animals.”

The next experiment deals with MCA205 tumors. The experiment can be described thus: Established MCA205 syngeneic tumor model. It is filed as in vivo, C57/Bl6 mice. The following applies: maximally efficacious doses. The source says: FIGS. 7A-7L show synergistic anti-tumor responses of Doxil in combination with α-PD-1, α-PD-L1 and α-CTLA-4 antibodies in the MCA205 syngeneic model. FIG. 7A is a graph depicting tumor volume in untreated mice. FIG. 7B is a graph depicting tumor volume in mice administered Doxil. FIG. 7C is a graph depicting tumor volume in mice administered OX40L fusion protein (FP). FIG. 7D is a graph depicting tumor volume in mice administered α-PD-1. FIG. 7E is a graph depicting tumor volume in mice administered α-PD-L1. FIG. 7F is a graph depicting tumor volume in mice administered α-CTLA-4. FIG. 7G is a graph depicting tumor volume in mice administered GITR ligand fusion protein (GITRL FP). […]
As CT26 is highly sensitive to immunotherapies, it was determined whether Doxil could enhance the activity of immunotherapies in a less sensitive model, MCA205. […]
MCA205 cells were obtained from Agonox (Portland, Oreg.) and grown in RPMI supplemented with 10% fetal bovine serum. […] The number of animals per group ranged from between 10-12 animals per group as determined based on sample size calculations using nQuery software. Both tumor and body weight measurements were collected twice weekly and tumor volume calculated using the equation (L×W^2)/2, where L and W refers to the length and width dimensions, respectively. Error bars were calculated as standard error of the mean. […]

With `O=C1[O][Pt]2([NH][C@@H]3CCCC[C@H]3[NH]2)[O]C1=O` [Oxaliplatin], in the experiment with CT26 tumors [1], the anti-tumor activity entry was “increased antitumor activity”.
As to `COc1cccc2c1C(=O)c1c(O)c3c(c(O)c1C2=O)C[C@@](O)(C(=O)CO)C[C@@H]3O[C@H]1C[C@H](N)[C@H](O)[C@H](C)O1` [Doxorubicin, doxorubicin], the figures for the “No. of CRs” value with CT26 cells (1 mg/kg) and in the experiment with CT26 cells (4 mg/kg) were 0/10 and 2/10, respectively. The “number of complete responders” value in the experiment with CT26 cells (doxorubicin 4 mg/kg alone or combined with antibody) is recorded as 2 animals. The anti-tumor activity entry in the experiment on CT26 tumors [2] and in the experiment with CT26 tumors [1] was “did not elicit anti-tumor activity” in each case.
As to `Nc1ccn([C@@H]2O[C@H](CO)[C@@H](O)C2(F)F)c(=O)n1` [gemcitabine], the anti-tumor activity entry with CT26 tumors [2] and in the experiment on CT26 tumors [1] was “significant anti-tumor activity” throughout.

B1: MEDI4736: human monoclonal antibody directed against human PD-L1 (antibody, V domains shown)
VH: EVQLVESGGGLVQPGGSLRLSCAASGFTFSRYWMSWVRQAPGKGLEWVANIKQDGSEKYYVDSVKGRFTISRDNAKNSLYLQMNSLRAEDTAVYYCAREGGWFGELAFDYWGQGTLVTVSS
VL: EIVLTQSPGTLSLSPGERATLSCRASQRVSSSYLAWYQQKPGQAPRLLIYDASSRATGIPDRFSGSGSGTDFTLTISRLEPEDFAVYYCQQYGSLPWTFGQGTKVEIK
Consider B1, for which, in the experiment on xenograft model, the tumor growth result is “inhibits tumor growth”.

B2: OX40 FP: mouse OX40 fusion protein produced by MedImmune (protein)
chain: SSSPAKDPPIQRLRGAVTRCEDGQLFISSYKNEYQTMEVQNNSVVIKCDGLYIIYLKGSFFQEVKIDLHFREDHNPISIPMLNDGRRIVFTVVASLAFKDKVYLTVNAPDTLCEHLQINDGELIVVQLTPGYCAPEGSYHSTVNQVPL
modifications: left off: a dimerising Fc or GST
notes: mouse OX40 fusion protein produced by MedImmune
As to B2, the values for the anti-tumor activity entry in the experiment on CT26 tumors [3] (tumors 200-300 mm^3) and in the experiment with MCA205 tumors (tumors 100-150 mm^3) were “low to moderate activity” and “minimally active”, respectively. The complete responders result in the experiment with CT26 tumors [3] (tumors 200-300 mm^3, out of 12 mice) is given as “a few”. The complete response entry in the experiment with MCA205 tumors (tumors 100-150 mm^3, out of 12 mice) is given as “one”.
